Results published in article PMC10550967, “Structure of the ceramide-bound SPOTS complex” (Nature Communications, 2023).

Legend:
[1] = molecular target: T1, SPOTS complex (monomeric, with Sac1) (Saccharomyces cerevisiae, UniProt P25045+P40970+P53224, P53224:S51A/P53224:S52A/P53224:S53A); assay: colorimetric CoA release assay; type: biochemical; conditions: 30 µM PLP, 0.008% GDN, pH 6.8, RT, 1 h, FLAG-purified complex (mixture of SPOT and SPOTS), catalytic site Lcb1/Lcb2
T1 construct: gene LCB1; co-overexpressed in S. cerevisiae (GAL1 promoter); 3xFLAG inserted between codons 9 and 10 of LCB1, kept; GDN-solubilised; monomeric 1:1:1:1:1; Site chains differ by ligand (see pair conditions); The purified sample also holds Sac1-free SPOT monomer and dimer; with Serine palmitoyltransferase-regulating protein TSC3; Phosphoinositide phosphatase SAC1
T1 sequence (P25045 whole entry, one chain of several): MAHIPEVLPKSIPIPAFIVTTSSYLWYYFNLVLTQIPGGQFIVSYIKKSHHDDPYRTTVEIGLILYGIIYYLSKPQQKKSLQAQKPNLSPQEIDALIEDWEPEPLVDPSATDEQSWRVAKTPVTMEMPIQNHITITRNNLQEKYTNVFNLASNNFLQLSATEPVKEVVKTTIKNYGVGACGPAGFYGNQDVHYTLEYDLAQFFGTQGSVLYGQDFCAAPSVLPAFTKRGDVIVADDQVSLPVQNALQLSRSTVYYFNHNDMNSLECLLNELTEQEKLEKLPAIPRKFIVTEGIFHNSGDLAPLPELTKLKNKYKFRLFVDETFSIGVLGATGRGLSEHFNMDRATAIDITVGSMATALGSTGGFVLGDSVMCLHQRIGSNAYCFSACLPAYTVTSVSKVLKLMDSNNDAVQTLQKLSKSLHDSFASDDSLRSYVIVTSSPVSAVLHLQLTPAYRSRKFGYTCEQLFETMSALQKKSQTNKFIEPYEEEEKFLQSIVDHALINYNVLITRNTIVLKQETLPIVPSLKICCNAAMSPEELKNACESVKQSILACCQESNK
T1 sequence (P53224 whole entry S51A/S52A/S53A, one chain of several): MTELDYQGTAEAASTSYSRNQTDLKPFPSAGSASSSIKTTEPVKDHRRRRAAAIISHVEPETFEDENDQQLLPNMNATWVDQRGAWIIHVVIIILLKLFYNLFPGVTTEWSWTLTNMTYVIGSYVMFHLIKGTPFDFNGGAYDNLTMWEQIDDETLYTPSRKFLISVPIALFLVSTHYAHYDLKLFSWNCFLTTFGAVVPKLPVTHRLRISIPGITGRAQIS
T1 sequence (Q3E790 whole entry partner, one chain of several): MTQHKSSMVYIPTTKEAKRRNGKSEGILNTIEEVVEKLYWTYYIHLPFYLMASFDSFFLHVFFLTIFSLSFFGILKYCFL
T1 sequence (P32368 whole entry partner, one chain of several): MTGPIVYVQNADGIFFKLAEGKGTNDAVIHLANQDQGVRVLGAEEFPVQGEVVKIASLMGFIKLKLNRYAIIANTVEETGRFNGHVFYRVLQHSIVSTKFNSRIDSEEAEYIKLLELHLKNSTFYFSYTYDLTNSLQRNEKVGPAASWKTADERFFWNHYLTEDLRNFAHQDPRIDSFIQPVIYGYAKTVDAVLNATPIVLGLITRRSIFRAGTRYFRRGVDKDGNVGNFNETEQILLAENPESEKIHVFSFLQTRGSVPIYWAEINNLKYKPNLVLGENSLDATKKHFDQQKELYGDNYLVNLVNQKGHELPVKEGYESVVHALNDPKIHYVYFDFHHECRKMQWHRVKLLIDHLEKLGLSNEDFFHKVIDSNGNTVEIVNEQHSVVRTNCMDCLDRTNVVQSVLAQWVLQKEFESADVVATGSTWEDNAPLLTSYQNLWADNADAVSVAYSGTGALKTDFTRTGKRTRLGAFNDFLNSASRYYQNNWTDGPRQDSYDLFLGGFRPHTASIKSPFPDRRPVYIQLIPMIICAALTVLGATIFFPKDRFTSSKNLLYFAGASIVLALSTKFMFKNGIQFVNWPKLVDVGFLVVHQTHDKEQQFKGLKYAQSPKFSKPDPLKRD

SPOT complex (monomer) = molecular target: T2, SPOT complex (monomer) (Saccharomyces cerevisiae, UniProt P25045+P40970+P53224, P53224:S51A/P53224:S52A/P53224:S53A); assay: cryo-EM structure, […] Å; type: binding; conditions: site: pocket of Lcb1 TM0a helix and Orm1 TM4, three molecules; co-purified endogenous lipid
T2 construct: gene LCB1; same preparation as P1, cryo-EM class without Sac1; monomeric; 3xFLAG inserted between codons 9 and 10 of LCB1; GDN-solubilised; Site chains differ by ligand (see pair conditions); with Serine palmitoyltransferase-regulating protein TSC3
T2 sequence (P25045 whole entry, one chain of several): as the sequence (P25045 whole entry, one chain of several) above
T2 sequence (P53224 whole entry S51A/S52A/S53A, one chain of several): as the sequence (P53224 whole entry S51A/S52A/S53A, one chain of several) above
T2 sequence (Q3E790 whole entry partner, one chain of several): as the sequence (Q3E790 whole entry partner, one chain of several) above

[2] = molecular target: T1, SPOTS complex (monomeric, with Sac1); assay: cryo-EM structure, […] Å; coupled enzymatic assay of bound sterol; type: binding; conditions: site: pocket of Lcb1 TM0a helix and Orm1 TM4, three molecules; co-purified endogenous lipid
[3] = molecular target: the molecule itself; assay: cryo-EM structure; single-particle cryo-EM of the FLAG-purified complex in GDN, 10 mg/ml; one dataset gave a C2 symmetric SPOT dimer, a SPOT monomer and a SPOTS monomer with Sac1

Question: `CCCCCCCCCCCCCCCC(=O)SCCNC(=O)CCNC(=O)[C@H](O)C(C)(C)COP(=O)(O)OP(=O)(O)OC[C@H]1O[C@@H](n2cnc3c(N)ncnc32)[C@H](O)[C@@H]1OP(=O)(O)O` [palmitoyl-CoA] was tested. Which “colorimetric CoA release assay” value ([1]; 15 mM L-serine) did it give?
Answer: release of CoA-SH from the SPT-catalyzed condensation of palmitoyl-CoA and L-serine

Question: `N[C@@H](CO)C(=O)O` [L-serine] was tested. Which “colorimetric CoA release assay” value ([1]; 100 µM palmitoyl-CoA) did it give?
Answer: release of CoA-SH from the SPT-catalyzed condensation of palmitoyl-CoA and L-serine

Question: Which “cryo-EM structure, 3.4 Å” value (SPOT complex (monomer)) does the source give for `CC(C)[C@@H](C)/C=C/[C@@H](C)[C@H]1CC[C@H]2C3=CC=C4C[C@@H](O)CC[C@]4(C)[C@H]3CC[C@]12C` [ergosterol] here?
Answer: in which three structurally well-resolved ergosterol molecules are positioned

Question: What about the “cryo-EM structure, 3.3 Å; coupled enzymatic assay of bound sterol” value [2] of the same molecule?
Answer: Lcb1-TM0a directly interacts with three molecules of ergosterol

B1: Lcb2 (enzyme, S. cerevisiae)
chain: MSTPANYTRVPLCEPEELPDDIQKENEYGTLDSPGHLYQVKSRHGKPLPEPVVDTPPYYISLLTYLNYLILIILGHVHDFLGMTFQKNKHLDLLEHDGLAPWFSNFESFYVRRIKMRIDDCFSRPTTGVPGRFIRCIDRISHNINEYFTYSGAVYPCMNLSSYNYLGFAQSKGQCTDAALESVDKYSIQSGGPRAQIGTTDLHIKAEKLVARFIGKEDALVFSMGYGTNANLFNAFLDKKCLVISDELNHTSIRTGVRLSGAAVRTFKHGDMVGLEKLIREQIVLGQPKTNRPWKKILICAEGLFSMEGTLCNLPKLVELKKKYKCYLFIDEAHSIGAMGPTGRGVCEIFGVDPKDVDILMGTFTKSFGAAGGYIAADQWIIDRLRLDLTTVSYSESMPAPVLAQTISSLQTISGEICPGQGTERLQRIAFNSRYLRLALQRLGFIVYGVADSPVIPLLLYCPSKMPAFSRMMLQRRIAVVVVAYPATPLIESRVRFCMSASLTKEDIDYLLRHVSEVGDKLNLKSNSGKSSYDGKRQRWDIEEVIRRTPEDCKDDKYFVN
modifications: PLP forms an internal aldimine with K366
notes: Lcb2, catalytic subunit of serine palmitoyltransferase, S. cerevisiae; also called SPT subunit; source: S. cerevisiae, co-expressed with the other SPOTS subunits under the GAL1 promoter
Question: Does B1 bind [3]?
Answer: binds
